Test results: US9975902B2, “Compounds for the inhibition of cyclophilins and uses thereof” (Merck Patent GmbH, priority 2016, dated 2018)

Key:
CypD [1] = molecular target: T1, CypD (Homo sapiens (Human), UniProt P30405); test: CypD binding assay (competition fluorescence polarisation with fluorescine labelled cyclosporin)
Method: The binding capacity of the compounds was measured using a competition Fluorescence-Polarisation based assay with fluorescine labelled cyclosporin. The protocol used was adapted from Hausch et al, Med Chem lett 2010, p 536.

CypD [2] = molecular target: T1, CypD; test: SPR binding; conditions: steady state KD, read-out: SPR CypD (KDss)
Excerpt: Binding was confirmed on an SPR surface using a protocol adapted from Mori et al., J. Biomolecular Screening, 2009, p.

T1 sequence (P30405 30-207): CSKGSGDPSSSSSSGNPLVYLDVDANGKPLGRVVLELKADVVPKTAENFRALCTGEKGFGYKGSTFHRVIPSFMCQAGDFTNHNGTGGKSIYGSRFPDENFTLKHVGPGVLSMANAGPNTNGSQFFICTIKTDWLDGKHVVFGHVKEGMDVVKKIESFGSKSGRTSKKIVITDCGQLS

IC50 (CypD [1]) [µM]	Kd (CypD [2]) [µM]	Compound
< 10	< 10	O=C(CN1C(=O)[C@@H]2[C@H]3CC[C@H](C3)[C@@H]2C1=O)NCc1ccc2c(c1)[C@H]1C[C@@H](N2)[C@H](O)CO1 [Compound 1, 2-exo-(3,5-Dioxo-4-aza-tricyclo[5.2.1.02,6]dec-4-yl)-N-((1R,9R,10S)-10-hydroxy-12-oxa-8-aza-tricyclo[7.3.1.02,7]trideca-2(7),3,5-trien-4-ylmethyl)-acetamide]
< 10	< 10	O=C(CN1C(=O)[C@@H]2[C@@H]3CC[C@@H](C3)[C@@H]2C1=O)NCc1ccc2c(c1)[C@H]1C[C@@H](N2)[C@H](O)CO1 [Compound 3]
10 to 200	10 to 200	CCN1Cc2cc(CNC(=O)CN3C(=O)[C@@H]4[C@H]5CC[C@H](C5)[C@@H]4C3=O)ccc2NCCC1=O [Compound 6]
10 to 200	10 to 200	O=C(CN1C(=O)[C@@H]2[C@@H]3CC[C@@H](C3)[C@@H]2C1=O)NCCc1ccc2c(c1)CCCN2 [Compound 9, 2-endo-(3,5-Dioxo-4-aza-tricyclo[5.2.1.02,6]dec-4-yl)-N-[2-(1,2,3,4-tetrahydro-quinolin-6-yl)-ethyl]-acetamide]
10 to 200	10 to 200	Nc1ccc(CCNC(=O)CN2C(=O)[C@@H]3[C@@H]4CC[C@@H](C4)[C@@H]3C2=O)cc1 [Compound 10, N-endo-[2-(4-Amino-phenyl)-ethyl]-2-(3,5-dioxo-4-aza-tricyclo[5.2.1.02,6]dec-4-yl)-acetamide]

More lines, now with the values behind:

Compound	IC50 (CypD [1]) [µM]	Kd (CypD [2]) [µM]
Nc1ccc(C2(NC(=O)CN3C(=O)[C@@H]4[C@@H]5CC[C@@H](C5)[C@@H]4C3=O)CC2)cc1 [Compound 5, 2-endo-(3,5-Dioxo-4-aza-tricyclo[5.2.1.02,6]dec-4-yl)-N-[1-(4-amino-phenyl)-cyclopropyl]-acetamide]	10 to 200	10 to 200
Nc1ccc(CCNC(=O)CN2C(=O)C3CCCCC3C2=O)cc1 (stereo not drawn) [Compound 7, N-[2-(4-Amino-phenyl)-ethyl]-2-(1,3-dioxo-octahydro-isoindol-2-yl)-acetamide]	10 to 200	10 to 200
Nc1ccc(CNC(=O)CN2C(=O)C3C4CCC(O4)C3C2=O)cc1 (stereo not drawn) [Compound 8, N-(4-Amino-benzyl)-2-(3,5-dioxo-10-oxa-4-aza-tricyclo[5.2.1.02,6]dec-4-yl)-acetamide]	10 to 200	10 to 200
CCC1Oc2cc(C(C)NC(=O)CN3C(=O)[C@@H]4[C@@H]5CC[C@@H](C5)[C@@H]4C3=O)ccc2NC1=O (stereo partly drawn) [Compound 11, 2-endo-(3,5-Dioxo-4-aza-tricyclo[5.2.1.02,6]dec-4-yl)-N-[1-(2-ethyl-3-oxo-3,4-dihydro-2H-benzo[1,4]oxazin-7-yl)-ethyl]-acetamide]	10 to 200	10 to 200
